# From patent publication US20140120184A1, “ARGON-BASED INHALABLE GASEOUS MEDICINAL PRODUCT FOR THE TREATMENT OF NEUROINTOXICATIONS” (Air Liquide Sante (International), priority 2003, published 2014)
# Assays:
# Type in all cases: in vivo, Sprague-Dawley rats
# [1] = system: sensitization to D-amphetamine; experiment: Stereotypic righting activity on D7 after D-amphetamine challenge (photoelectric cell actimetry) in the D-amphetamine sensitization protocol; conditions: rats given D-amphetamine 1 mg/kg i.p. D1-D3, each injection followed by 3 h gas exposure, versus sensitized rats treated with air
# Procedure: (§1) To do this, adult male Sprague-Dawley rats that weighed approximately 220 g when they arrived in the laboratory were used. Throughout the study, the animals were placed under standard animalhouse conditions, in groups of 8, so as to avoid the appearance of a stress reaction subsequent to isolation. They had water and food ad libitum.
# (§2) For 3 consecutive days (from D1 to D3), 8 groups of animals (8 rats per group) were administered intraperitoneally (i.p.) either D-amphetamine (amph: 1 mg/ml/kg), or a saline solution (saline: 1 ml/kg) for the control animals. […]
# (§3) The locomotor activity and the righting activity of the animals were evaluated at D6, after an i.p. injection of a saline solution (1 ml/kg) in order to determine the actual effects of the treatments administered with the various gases and mixtures of gas, and on D7 after an i.p. administration of D-amphetamine (1 mg/ml/kg) in order to evaluate the effects of the gases and mixtures of gas on sensitization to D-amphetamine. […]
# (§4) The results obtained (see FIGS. 1 and 2) are expressed as the mean±the standard error of the mean. […]
# [2] = system: sensitization to D-amphetamine; experiment: Locomotor activity on D7 after D-amphetamine challenge (photoelectric cell actimetry) in the D-amphetamine sensitization protocol; conditions: rats given D-amphetamine 1 mg/kg i.p. D1-D3, each injection followed by 3 h gas exposure, versus sensitized rats treated with air
# Procedure: as §1, §2, §3, §4
# [3] = Overall and qualitative evaluation of the gas-treated rats (neurotoxic effect, behaviour) during the sensitization protocol; conditions: conclusion from locomotor and righting activity of the gas-exposed rats
# Procedure: as §1, §2, §3
substance,measurement,setting,value
argon [argon at 75 vol %],effect on the righting activity corresponding to the development of the sensitization to D-amphetamine,[1],inhibitory effect
same,effect on the locomotor hyperactivity inherent to the development of sensitization to D-amphetamine,[2],total inhibitory effect
same,neurotoxic effect,[3],without any neurotoxic effect being observed
